# Assays:
# [1] = Prodrug conversion in Sprague-Dawley rat hepatic portal vein assessed as 2-((4-(Benzo[d]thiazol-5-ylamino)-6-(tert-butylsulfonyl)quinazolin-7-yl)oxy)ethanol formation; assay type: ADME; conditions: in vivo
# [2] = Cmax in Sprague-Dawley rat assessed as 2-((4-(Benzo[d]thiazol-5-ylamino)-6-(tert-butylsulfonyl)quinazolin-7-yl)oxy)ethanol level at 2 mg/kg, po by LC/MS/MS analysis; assay type: ADME, organism-based; design: dose 2 mg/kg, route oral; conditions: in vivo
# [3] = Half life in dog intestinal S9 fraction; assay type: ADME, subcellular, Canis lupus familiaris, Intestine
# [4] = Half life in rat blood; assay type: ADME, tissue-based
# [5] = Half life in dog blood; assay type: ADME, tissue-based, Canis lupus familiaris
# [6] = Prodrug conversion in Sprague-Dawley rat gut assessed as 2-((4-(Benzo[d]thiazol-5-ylamino)-6-(tert-butylsulfonyl)quinazolin-7-yl)oxy)ethanol formation at 2 mg/kg, po or 0.5 mg/kg, iv measured at 15 to 120 mins post dose; assay type: ADME, organism-based; conditions: in vivo
# [7] = Solubility of the compound in FeSSIF; assay type: physicochemical; conditions: simulated gi fluid
# [8] = Solubility of the compound in FaSSIF measured after 4 hrs using hemi-calcium salt form of compound; assay type: physicochemical
# [9] = Prodrug conversion in Han Wistar rat eye assessed as 2-((4-(Benzo[d]thiazol-5-ylamino)-6-(tert-butylsulfonyl)quinazolin-7-yl)oxy)ethanol formation at 2 mg/kg, iv administered as infusion for 4 hrs; assay type: ADME, organism-based; conditions: in vivo
# [10] = Drug uptake in Han Wistar rat colon at 2 mg/kg, iv administered as infusion for 4 hrs; assay type: ADME, organism-based; conditions: in vivo
# [11] = Drug uptake in Han Wistar rat skin at 2 mg/kg, iv administered as infusion for 4 hrs; assay type: ADME, organism-based, Zone of skin; conditions: in vivo
# [12] = Prodrug conversion in mouse blood assessed as 2-((4-(Benzo[d]thiazol-5-ylamino)-6-(tert-butylsulfonyl)quinazolin-7-yl)oxy)ethanol formation at 0.25 to 145 mg/kg, po administered twice daily via gavage for 8 days; assay type: ADME, organism-based; conditions: in vivo, 192 h
# [13] = Prodrug conversion in minipig hepatocytes assessed as (2S,3S,4S,5R,6R)-6-(2-(4-(benzo[d]thiazol-5-ylamino)-6-(tert-butylsulfonyl)quinazolin-7-yloxy)ethoxy)-3,4,5-trihydroxytetrahydro-2H-pyran-2-carboxylic acid formation at 20 uM measured after 4 hrs; assay type: ADME, cell-based, Sus scrofa, Hepatocyte; conditions: pig
# [14] = Prodrug conversion in minipig hepatocytes assessed as dephosphorylation at 20 uM measured after 4 hrs; assay type: ADME, cell-based, Sus scrofa, Hepatocyte; conditions: pig
# [15] = Prodrug conversion in human hepatocytes assessed as 2-((4-(Benzo[d]thiazol-5-ylamino)-6-(tert-butylsulfonyl)quinazolin-7-yl)oxy)ethanol formation at 20 uM measured after 4 hrs; assay type: ADME, cell-based, Hepatocyte
# [16] = Prodrug conversion in human hepatocytes assessed as (2S,3S,4S,5R,6R)-6-(2-(4-(benzo[d]thiazol-5-ylamino)-6-(tert-butylsulfonyl)quinazolin-7-yloxy)ethoxy)-3,4,5-trihydroxytetrahydro-2H-pyran-2-carboxylic acid formation at 20 uM measured after 4 hrs; assay type: ADME, cell-based, Hepatocyte
# [17] = Prodrug conversion in human hepatocytes assessed as 2-(4-(benzo[d]thiazol-5-ylamino)-7-(2-hydroxyethoxy)quinazolin-6-ylsulfonyl)-2-methylpropan-1-ol formation at 20 uM measured after 4 hrs; assay type: ADME, cell-based, Hepatocyte
# [18] = Prodrug conversion in human hepatocytes assessed as benzothiazole ring opening at 20 uM measured after 4 hrs; assay type: ADME, cell-based, Hepatocyte
# [19] = Prodrug conversion in Sprague-Dawley rat stomach assessed as 2-((4-(Benzo[d]thiazol-5-ylamino)-6-(tert-butylsulfonyl)quinazolin-7-yl)oxy)ethanol formation at 2 mg/kg, po or 0.5 mg/kg, iv measured at 15 to 120 mins post dose; assay type: ADME, organism-based; conditions: in vivo
# [20] = target: Tyrosine-protein kinase ABL2 (Homo sapiens) (UniProt P42684); assay: Inhibition of human ABL2 at 1 uM using EAIYAAPFAKKK as substrate in presence of [gamma-33P]ATP relative to control
# Sequence of Tyrosine-protein kinase ABL2 (Homo sapiens) (P42684 whole entry): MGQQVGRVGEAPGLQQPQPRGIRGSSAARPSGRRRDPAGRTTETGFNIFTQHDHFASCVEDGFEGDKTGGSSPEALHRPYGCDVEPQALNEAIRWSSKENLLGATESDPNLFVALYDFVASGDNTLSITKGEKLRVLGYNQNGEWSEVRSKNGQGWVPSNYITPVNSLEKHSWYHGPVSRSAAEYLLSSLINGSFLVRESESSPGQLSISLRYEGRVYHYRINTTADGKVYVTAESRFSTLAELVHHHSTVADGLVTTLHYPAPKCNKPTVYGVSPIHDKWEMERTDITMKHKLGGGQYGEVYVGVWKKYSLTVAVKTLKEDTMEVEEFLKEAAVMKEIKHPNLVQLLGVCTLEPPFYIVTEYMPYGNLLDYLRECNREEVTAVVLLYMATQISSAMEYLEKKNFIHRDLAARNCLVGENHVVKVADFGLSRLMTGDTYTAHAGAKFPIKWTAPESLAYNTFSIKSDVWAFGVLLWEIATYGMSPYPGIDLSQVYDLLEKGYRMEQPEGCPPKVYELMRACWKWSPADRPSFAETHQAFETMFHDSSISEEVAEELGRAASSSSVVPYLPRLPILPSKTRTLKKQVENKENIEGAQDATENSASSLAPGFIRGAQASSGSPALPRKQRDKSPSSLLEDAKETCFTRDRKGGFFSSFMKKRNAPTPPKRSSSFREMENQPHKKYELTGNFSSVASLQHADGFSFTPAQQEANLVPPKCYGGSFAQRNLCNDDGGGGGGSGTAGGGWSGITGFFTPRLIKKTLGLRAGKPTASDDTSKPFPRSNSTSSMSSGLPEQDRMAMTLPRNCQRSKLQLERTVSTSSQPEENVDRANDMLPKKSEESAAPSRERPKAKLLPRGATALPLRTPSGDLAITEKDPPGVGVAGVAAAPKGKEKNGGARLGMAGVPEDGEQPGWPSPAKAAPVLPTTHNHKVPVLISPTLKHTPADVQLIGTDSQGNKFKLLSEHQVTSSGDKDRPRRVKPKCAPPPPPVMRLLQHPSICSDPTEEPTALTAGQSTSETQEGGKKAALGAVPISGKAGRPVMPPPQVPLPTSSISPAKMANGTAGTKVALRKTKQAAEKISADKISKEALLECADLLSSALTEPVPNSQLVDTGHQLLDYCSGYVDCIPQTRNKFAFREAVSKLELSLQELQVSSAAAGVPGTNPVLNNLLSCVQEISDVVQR
# [21] = AUC in Sprague-Dawley rat at 2 mg/kg, po by LC/MS/MS analysis; assay type: ADME, organism-based; conditions: in vivo
# [22] = Dose normalized AUC in Sprague-Dawley rat at 20 mg/kg, po using crystalline sample during 7 day dose ranging study by LC/MS/MS analysis; assay type: ADME, organism-based; conditions: in vivo, 168 h
# [23] = Dose normalized AUC in Sprague-Dawley rat at 200 mg/kg, po using crystalline sample during 7 day dose ranging study by LC/MS/MS analysis; assay type: ADME, organism-based; conditions: in vivo, 168 h
# Toll-like receptor 9 = target: T1, Toll-like receptor 9 (Homo sapiens, UniProt Q9NR96); assay: Inhibition of TLR9 in human monocytes assessed as reduction in CpG-ODN-induced IL8 production; assay type: cell-based
# T1 sequence (Q9NR96 whole entry): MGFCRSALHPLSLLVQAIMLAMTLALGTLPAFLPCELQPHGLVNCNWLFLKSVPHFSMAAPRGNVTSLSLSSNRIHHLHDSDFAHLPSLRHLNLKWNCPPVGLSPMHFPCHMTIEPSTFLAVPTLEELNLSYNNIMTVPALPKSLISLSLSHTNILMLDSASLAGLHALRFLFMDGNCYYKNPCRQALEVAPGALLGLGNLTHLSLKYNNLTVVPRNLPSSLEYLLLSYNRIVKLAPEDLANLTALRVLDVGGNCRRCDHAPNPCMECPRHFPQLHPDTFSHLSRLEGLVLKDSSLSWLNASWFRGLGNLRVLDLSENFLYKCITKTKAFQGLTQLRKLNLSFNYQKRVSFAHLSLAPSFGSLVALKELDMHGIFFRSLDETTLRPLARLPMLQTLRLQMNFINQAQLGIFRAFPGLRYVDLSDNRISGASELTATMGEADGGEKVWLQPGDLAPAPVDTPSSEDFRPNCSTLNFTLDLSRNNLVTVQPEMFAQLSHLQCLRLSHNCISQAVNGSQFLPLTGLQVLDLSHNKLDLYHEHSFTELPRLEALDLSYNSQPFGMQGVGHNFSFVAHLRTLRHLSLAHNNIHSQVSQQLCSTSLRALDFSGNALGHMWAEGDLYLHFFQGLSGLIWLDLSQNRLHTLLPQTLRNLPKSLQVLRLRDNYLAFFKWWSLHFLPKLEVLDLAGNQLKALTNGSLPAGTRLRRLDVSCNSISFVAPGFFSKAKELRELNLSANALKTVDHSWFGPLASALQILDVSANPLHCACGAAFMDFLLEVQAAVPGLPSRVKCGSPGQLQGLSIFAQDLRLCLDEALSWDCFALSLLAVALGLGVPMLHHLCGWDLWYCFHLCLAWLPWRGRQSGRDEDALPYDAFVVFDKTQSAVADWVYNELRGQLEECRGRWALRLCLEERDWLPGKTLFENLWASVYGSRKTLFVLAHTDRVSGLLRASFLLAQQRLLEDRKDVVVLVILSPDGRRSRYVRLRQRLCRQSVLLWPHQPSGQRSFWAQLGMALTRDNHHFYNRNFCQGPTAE
# [24] = Unbound fraction in rat blood; assay type: ADME, tissue-based
# [25] = Unbound fraction in dog blood; assay type: ADME, tissue-based, Canis lupus familiaris
# [26] = Clearance in rat hepatocytes; assay type: ADME, cell-based, Hepatocyte
# [27] = Clearance in dog hepatocytes; assay type: ADME, cell-based, Canis lupus familiaris, Hepatocyte
# [28] = Clearance in human hepatocytes; assay type: ADME, cell-based, Hepatocyte
# Intestinal mucosa = assay: Antiinflammatory activity in ulcerative colitis patient derived inflamed intestinal mucosa assessed as reduction in IL6 production measured after overnight incubation by immunoassay; assay type: functional, tissue-based; conditions: Homo sapiens
smiles,measurement,setting,value
CC(C)(C)S(=O)(=O)c1cc2c(Nc3ccc4scnc4c3)ncnc2cc1OCCOP(=O)(O)O.[CaH2],Drug metabolism,[1],Metabolite_Detected
same,Cmax,[2],170 ng/mL
same,half-life,[3],8 min
same,half-life,[4],35 min
same,half-life,[5],21 min
same,Drug metabolism,[6],Metabolite_Detected
same,solubility,[7],Soluble
same,solubility at 4 h,[8],130 µg/mL
same,Drug metabolism,[9],Metabolite_Detected
same,Drug uptake,[10],Not Active
same,Drug uptake,[11],Not Active
same,Drug metabolism,[12],Metabolite_Detected
same,Drug metabolism,[13],Metabolite_Detected
same,Drug metabolism,[14],Metabolite_Detected
same,Drug metabolism,[15],Metabolite_Detected
same,Drug metabolism,[16],Metabolite_Detected
same,Drug metabolism,[17],Metabolite_Detected
same,Drug metabolism,[18],Metabolite_Detected
same,Drug metabolism,[19],Metabolite_Detected
CC(C)(C)S(=O)(=O)c1cc2c(Nc3ccc4scnc4c3)ncnc2cc1OCCO,inhibition,[20],70 to 90%
same,AUC,[21],460 ng·h/mL
same,AUC/dose,[22],0.44 kg·h/L
same,AUC/dose,[23],0.21 kg·h/L
same,IC50,Toll-like receptor 9,> 10000 nM
same,fraction unbound,[24],0.11
same,fraction unbound,[25],0.089
same,CLH,[26],< 0.48 mL/min/g
same,CLH,[27],0.65 mL/min/g
same,CLH,[28],< 0.48 mL/min/g
same,Activity,Intestinal mucosa,Dose-dependent effect
same,IC50,Intestinal mucosa,10 nM
